According to article PMC11819893, “Isolation and Bioassay of Linear Veraguamides from a Marine Cyanobacterium (Okeania sp.)” (Molecules, 2025):
Numbered stars: 1 amine (or outer) side, 2 acyl side, 3 side chain; on linkers, the order of the positions; unused ones are H or OH. Square brackets hold non-standard residues; d marks the D form. Peptide text beside a SMILES is read from it. * marks the point of attachment. NMeI = CC[CH](C)[CH](NC)C(=O)O; X2 = CCC(C)C(O[*:1])C(=O)[*:2]; NMeV = CN[CH](C(=O)O)C(C)C; X1 = C#CCCCC(O)C(C)C(=O)*

How the values were obtained:
MDA-MB-231 cells = assay: MTT cytotoxicity assay in MDA-MB-231 (TNBC) cells; assay type: cell-based, human; conditions: for cytotoxicity / effect on viability in words: TNBC (MDA-MB-231) cells, MTT
Protocol: (§1) The human triple-negative breast cancer cell line MDA-MB-231 was obtained from ATCC and was maintained in DMEM:F-12 (1:1) (Life Technologies, Carlsbad, CA, USA), 10% Fetal Bovine Serum (Atlanta Biologicals, Atlanta, GA, USA), and 1% Penicillin/Streptomycin (Sigma, St. Louis, MO, USA). The estrogen-positive MCF-7 cell line was also obtained from ATCC and was maintained in 1640 RPMI media (Life technologies), 10% FBS, and 1% Penicillin/Streptomycin. HEK-293 cells were also obtained from ATCC and maintained in Dulbecco’s Modification of Eagle’s Medium (DMEM), 10% Fetal Bovine Serum (FBS), and 1% Penicillin/Streptomycin (Pen/Strep).
(§2) Two rounds of toxicity experimentation were completed. First, MDA-MB-231 and MCF-7 cells were plated at a density of 5 × 10^3 cells per well in a 96-well plate. Cells were allowed to attach overnight. The cells were treated with depsipeptides or vehicle for 72 h with 5% FBS stimulation. DMSO was used as a vehicle control. After treatment, 10 μ L MTT (Sigma) was added to each well (0.5 mg/mL final concentration), and the plates were incubated for 3 h (5% CO2 and 37 °C). The medium was removed and the MTT-formazan crystals were dissolved with 100 μ L DMSO per well. The absorbance was measured at 570 nm with a VICTOR^3 1420 multilabel counter (Perkin Elmer, Springfield, IL, USA). Three wells were analyzed for each condition, and wells containing medium-MTT only (no cells) and medium-MTT (DMSO + 5% FBS) were used as controls. Results were normalized to the DMSO + 5% FBS group.

MCF-7 cells = assay: MTT cytotoxicity assay in MCF-7 (estrogen positive) cells; assay type: cell-based, human; conditions: ER-positive MCF-7 cells, 72 h, listed as Veraguamide O
Protocol: as §1
as §2, with “The medium was removed and the MTT-formazan crystals were dissolved with 100 μ L DMSO per well.” left out, “Results were normalized to the DMSO + 5% FBS group.” left out

C#CCCCC(O)C(C)C(=O)NC(C(=O)N(C)C(C(=O)OC(C(=O)N1CCCC1C(=O)N(C)C(C(=O)O)C(C)CC)C(C)CC)C(C)C)C(C)CC (stereo not drawn) [Veraguamide O (1)] (X1-I[NMeV][X2]P[NMeI]-OH; configuration not given here)
cell death observed microscopically (MDA-MB-231 cells; MDA-MB-231 (TNBC), 10 μM, microscopy): appeared to induce cell death
viability (MDA-MB-231 cells; MDA-MB-231, MTT, 72 h, 0.14 µM, % of DMSO + 5% FBS control): 86%
selectivity for TNBC over estrogen-positive cells, in words (MDA-MB-231 cells; MDA-MB-231 compared to MCF-7, MTT): selective inhibitory effects against TNBC (MDA-MB-231) cells compared to estrogen-positive (MCF-7) breast cancer cells
cytotoxicity / effect on viability in words (MDA-MB-231 cells; 72 h): decreased viability in MDA-MB-231 cells in a concentration-dependent manner
cytotoxicity / effect on viability in words (MDA-MB-231 cells; 72 h, listed as veraguamide O): similar, albeit minor, levels of toxicity
cytotoxicity / effect on viability in words (MCF-7 cells): no cytotoxicity
